Measurements as given in PubChem BioAssay (NCI).
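How tested: cells in 96-well plates exposed to compound for 48 hours at five concentrations. GI50 is the concentration that inhibits growth by half. TGI marks complete inhibition of growth.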

Columns and labels:
Experiment in all cases: NCI tumour cell line growth inhibition, 48 h; in the data active = GI50 below about 0.43 µM; inactive = the rest
IGROV1 ovarian = test system: IGROV1 ovarian
M14 melanoma = test system: M14 melanoma
HOP-62 NSCLC = test system: HOP-62 NSCLC
MDA-MB-435 = test system: MDA-MB-435
SF-268 CNS = test system: SF-268 CNS
SK-MEL-5 melanoma = test system: SK-MEL-5 melanoma
MOLT-4 leukemia = test system: MOLT-4 leukemia
HCT-15 colon = test system: HCT-15 colon
T-47D breast = test system: T-47D breast
HOP-92 NSCLC = test system: HOP-92 NSCLC
SF-295 CNS = test system: SF-295 CNS
HT29 colon = test system: HT29 colon
SK-OV-3 ovarian = test system: SK-OV-3 ovarian
CAKI-1 renal = test system: CAKI-1 renal
OVCAR-3 ovarian = test system: OVCAR-3 ovarian
SK-MEL-28 melanoma = test system: SK-MEL-28 melanoma
UO-31 renal = test system: UO-31 renal
OVCAR-5 ovarian = test system: OVCAR-5 ovarian
SNB-75 CNS = test system: SNB-75 CNS
UACC-62 melanoma = test system: UACC-62 melanoma
CCRF-CEM leukemia = test system: CCRF-CEM leukemia
KM12 colon = test system: KM12 colon
RXF 393 renal = test system: RXF 393 renal
PC-3 prostate = test system: PC-3 prostate
NCI-H460 lung = test system: NCI-H460 lung
SW-620 colon = test system: SW-620 colon
RPMI-8226 leukemia = test system: RPMI-8226 leukemia
NCI-H23 lung = test system: NCI-H23 lung
LOX IMVI melanoma = test system: LOX IMVI melanoma
NCI-H522 lung = test system: NCI-H522 lung
NCI/ADR-RES ovarian = test system: NCI/ADR-RES ovarian
SNB-19 CNS = test system: SNB-19 CNS
U251 CNS = test system: U251 CNS
MDA-MB-231 breast = test system: MDA-MB-231 breast
MALME-3M melanoma = test system: MALME-3M melanoma
COLO 205 colon = test system: COLO 205 colon
OVCAR-8 ovarian = test system: OVCAR-8 ovarian
HL-60(TB) leukemia = test system: HL-60(TB) leukemia
DU-145 prostate = test system: DU-145 prostate
NCI-H226 lung = test system: NCI-H226 lung
SF-539 CNS = test system: SF-539 CNS
A549 NSCLC = test system: A549 NSCLC
SR leukemia = test system: SR leukemia
HCC-2998 colon = test system: HCC-2998 colon
UACC-257 melanoma = test system: UACC-257 melanoma
786-0 renal = test system: 786-0 renal
EKVX NSCLC = test system: EKVX NSCLC
OVCAR-4 ovarian = test system: OVCAR-4 ovarian
TK-10 renal = test system: TK-10 renal
SN12C renal = test system: SN12C renal
ACHN renal = test system: ACHN renal
HCT-116 colon = test system: HCT-116 colon
MCF7 breast = test system: MCF7 breast
SK-MEL-2 melanoma = test system: SK-MEL-2 melanoma
BT-549 breast = test system: BT-549 breast
HS 578T breast = test system: HS 578T breast
K-562 leukemia = test system: K-562 leukemia
A498 renal = test system: A498 renal

Cc1ccc(-c2cc3c(NC(=O)C4CC4)ncnc3o2)cc1
> 25 µM: TGI (IGROV1 ovarian) | TGI (M14 melanoma) | TGI (HOP-62 NSCLC) | TGI (MDA-MB-435) | TGI (SF-268 CNS) | TGI (SK-MEL-5 melanoma) | TGI (MOLT-4 leukemia) | TGI (HCT-15 colon) | TGI (T-47D breast) | TGI (HOP-92 NSCLC) | TGI (SF-295 CNS) | TGI (HT29 colon) | TGI (SK-OV-3 ovarian) | TGI (CAKI-1 renal) | TGI (OVCAR-3 ovarian) | TGI (SK-MEL-28 melanoma) | TGI (UO-31 renal) | TGI (OVCAR-5 ovarian) | TGI (SNB-75 CNS) | TGI (UACC-62 melanoma) | TGI (CCRF-CEM leukemia) | TGI (KM12 colon) | TGI (RXF 393 renal) | TGI (PC-3 prostate) | TGI (NCI-H460 lung) | TGI (SW-620 colon) | TGI (RPMI-8226 leukemia) | TGI (NCI-H23 lung) | TGI (LOX IMVI melanoma) | TGI (NCI-H522 lung) | TGI (NCI/ADR-RES ovarian) | TGI (SNB-19 CNS) | TGI (U251 CNS) | TGI (MDA-MB-231 breast) | TGI (MALME-3M melanoma) | TGI (COLO 205 colon) | TGI (OVCAR-8 ovarian) | TGI (HL-60(TB) leukemia) | TGI (DU-145 prostate) | TGI (NCI-H226 lung) | TGI (SF-539 CNS) | TGI (A549 NSCLC) | TGI (SR leukemia) | TGI (HCC-2998 colon) | TGI (UACC-257 melanoma) | TGI (786-0 renal) | TGI (EKVX NSCLC) | TGI (OVCAR-4 ovarian) | TGI (TK-10 renal) | TGI (SN12C renal) | TGI (ACHN renal) | TGI (HCT-116 colon) | TGI (MCF7 breast) | TGI (SK-MEL-2 melanoma) | TGI (BT-549 breast) | TGI (HS 578T breast) | TGI (K-562 leukemia) | TGI (A498 renal)
inactive: GI50 (IGROV1 ovarian) > 25 µM | GI50 (M14 melanoma) > 25 µM | GI50 (HOP-62 NSCLC) > 25 µM | GI50 (MDA-MB-435) > 25 µM | GI50 (SF-268 CNS) > 25 µM | GI50 (SK-MEL-5 melanoma) > 25 µM | GI50 (MOLT-4 leukemia) > 25 µM | GI50 (HCT-15 colon) > 25 µM | GI50 (T-47D breast) > 25 µM | GI50 (HOP-92 NSCLC) > 25 µM | GI50 (SF-295 CNS) > 25 µM | GI50 (HT29 colon) > 25 µM | GI50 (SK-OV-3 ovarian) > 25 µM | GI50 (CAKI-1 renal) > 25 µM | GI50 (OVCAR-3 ovarian) > 25 µM | GI50 (SK-MEL-28 melanoma) > 25 µM | GI50 (UO-31 renal) > 25 µM | GI50 (OVCAR-5 ovarian) > 25 µM | GI50 (SNB-75 CNS) 24.2 µM | GI50 (UACC-62 melanoma) > 25 µM | GI50 (CCRF-CEM leukemia) > 25 µM | GI50 (KM12 colon) > 25 µM | GI50 (RXF 393 renal) > 25 µM | GI50 (PC-3 prostate) > 25 µM | GI50 (NCI-H460 lung) > 25 µM | GI50 (SW-620 colon) > 25 µM | GI50 (RPMI-8226 leukemia) > 25 µM | GI50 (NCI-H23 lung) > 25 µM | GI50 (LOX IMVI melanoma) > 25 µM | GI50 (NCI-H522 lung) > 25 µM | GI50 (NCI/ADR-RES ovarian) > 25 µM | GI50 (SNB-19 CNS) > 25 µM | GI50 (U251 CNS) > 25 µM | GI50 (MDA-MB-231 breast) > 25 µM | GI50 (MALME-3M melanoma) > 25 µM | GI50 (COLO 205 colon) > 25 µM | GI50 (OVCAR-8 ovarian) > 25 µM | GI50 (HL-60(TB) leukemia) > 25 µM | GI50 (DU-145 prostate) > 25 µM | GI50 (NCI-H226 lung) > 25 µM | GI50 (SF-539 CNS) > 25 µM | GI50 (A549 NSCLC) > 25 µM | GI50 (SR leukemia) > 25 µM | GI50 (HCC-2998 colon) > 25 µM | GI50 (UACC-257 melanoma) > 25 µM | GI50 (786-0 renal) > 25 µM | GI50 (EKVX NSCLC) > 21.3 µM | GI50 (OVCAR-4 ovarian) > 25 µM | GI50 (TK-10 renal) > 25 µM | GI50 (SN12C renal) > 25 µM | GI50 (ACHN renal) > 25 µM | GI50 (HCT-116 colon) > 25 µM | GI50 (MCF7 breast) > 25 µM | GI50 (SK-MEL-2 melanoma) > 25 µM | GI50 (BT-549 breast) > 25 µM | GI50 (HS 578T breast) > 25 µM | GI50 (K-562 leukemia) > 25 µM | GI50 (A498 renal) > 25 µM
